Measurements taken from US20180327367A1, “MACROCYCLIC BROAD SPECTRUM ANTIBIOTICS” (priority 2015, published 2018).
≈ marks a conversion by molar mass, not a printed value. Read-outs that look alike come from different tables or passages of the source.

Experiments:
[1] = molecular target: T1, SpsB (Staphylococcus aureus signal peptidase) (Staphylococcus aureus, UniProt P0A070); assay: cell-based; format: biochemical; conditions: SpsB IC50, whole-cell S. aureus (USA300 background, overexpressing SpsB) as SpsB source; fluorogenic peptide substrate, kinetic read 30 min
T1 construct: This assay uses a suspension of Staphylococcus aureus cells as a source of SpsB instead of recombinant SpsB protein; endogenous in cells; host or cells: S. aureus, USA300 background, overexpressing SpsB (whole-cell suspension from frozen pellets)
T1 sequence (P0A070 whole entry): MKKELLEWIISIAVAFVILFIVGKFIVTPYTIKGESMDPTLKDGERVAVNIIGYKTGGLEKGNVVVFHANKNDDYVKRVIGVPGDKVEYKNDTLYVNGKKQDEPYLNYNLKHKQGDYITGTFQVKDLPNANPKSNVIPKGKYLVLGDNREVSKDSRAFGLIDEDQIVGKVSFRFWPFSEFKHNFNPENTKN
Method in brief: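 Cleavage of an internally quenched (Dabcyl)βAla-KPAKAAE(Edans) peptide, added as 20 μM solution mixed 1:1 with cells, was followed for 30 min at 340/490 nm. SpsB came from a suspension of SpsB-overexpressing USA300 S. aureus in Tween-80-containing PBS buffer. Slopes plotted against 3-fold compound dilutions gave IC50.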

[2] = tested on: Escherichia coli ATCC 25922; assay: Minimum inhibitory concentration, broth micro-dilution (CLSI), E. coli; format: cell-based; conditions: Escherichia coli, ATCC25922, 22 h, 35° C., 22 hours
[3] = tested on: Escherichia coli MC4100 harboring the IMP4213 (E. coli IMP); assay: microbe, parasite or virus in culture; format: cell-based; conditions: Escherichia coli, 22 h, read-out: MIC (μg/mL) E. coli IMP, E. coli MC4100 IMP4213, increased outer-membrane permeability; 35° C., 22 hours
Method in brief: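 Ten 2-fold dilutions, from 4 μg/mL or from 0.5 μg/mL depending on protocol, are challenged with bacteria at OD600 0.0005 in Tween-80-supplemented cation-adjusted Mueller Hinton Broth. Plates incubate 22 hours at 35° C per CLSI. The E. coli IMP4213 strain has increased outer-membrane permeability.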

[4] = tested on: Methicillin Resistant Staphylococcus aureus strain USA 300, NRS384; assay: Minimum inhibitory concentration, broth micro-dilution (CLSI), S. aureus; format: cell-based; conditions: Staphylococcus aureus, MRSA / NRS 384 / USA300, 22 h, 35° C., 22 hours
Method in brief: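 Colonies grown 20 hours at 35° C were suspended in cation-adjusted Mueller Hinton Broth with 0.002% Tween-80. Cells were then added to 2-fold compound dilutions starting at 4 or 0.5 μg/mL, at OD600 0.0005.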

[5] = read-out: MIC (μg/mL) E. coli, E. coli ATCC 25922
[6] = read-out: MIC (μg/mL) S. aureus, MRSA USA 300 NRS384
[7] = E. coli ATCC 25922, read-out: MIC (μg/mL) E. coli
[8] = MRSA USA 300 NRS384, read-out: MIC (μg/mL) S. aureus

SMILES | IC50 [1] [nM] | MIC [2, 5] [µg/mL] | MIC [3] [µg/mL] | MIC [4, 6] [µg/mL] | MIC [2, 7] [µg/mL] | MIC [4, 8] [µg/mL]
C#CCC(C)(C)COc1ccc(C(=O)N[C@@H](CCN)C(=O)N(C)[C@@H]2C(=O)N[C@@H](C)C(=O)N[C@H](C(=O)NCC#N)Cc3ccc(OCCN)c(c3)-c3cc2ccc3OCCN)c(C)c1 [Compound 284] | 0.82 | 1 (≈ 1.15 µM) | 0.012 (≈ 0.0139 µM) | 0.13 (≈ 0.15 µM) | – | –
CCCC(C)(C)COc1ccc(C(=O)N[C@@H](CCN)C(=O)N(C)[C@@H]2C(=O)N[C@@H](C)C(=O)N[C@H](C(=O)NCC#N)Cc3ccc(OCCN)c(c3)-c3cc2ccc3OCCN)c(C)c1 [Compound 288] | 1.1 | – | 0.0078 (≈ 0.00896 µM) | – | 0.25 (≈ 0.287 µM) | 0.063 (≈ 0.0724 µM)
Cc1cc(OCC2(C)CCCCC2)ccc1C(=O)N[C@@H](CCN)C(=O)N(C)[C@@H]1C(=O)N[C@@H](C)C(=O)N[C@H](C(=O)NCC#N)Cc2ccc(OCCN)c(c2)-c2cc1ccc2OCCN [Compound 289] | 0.93 | – | 0.0078 (≈ 0.00884 µM) | – | 0.25 (≈ 0.283 µM) | 0.031 (≈ 0.0351 µM)
CCCCCCCOc1cc(Cl)c(C(=O)N[C@@H](CCN)C(=O)N(C)[C@@H]2C(=O)N[C@@H](C)C(=O)N[C@H](C(=O)NCC#N)Cc3ccc(OCCN)c(c3)-c3cc2ccc3OCCN)c(Cl)c1 [Compound 290] | 1.2 | 0.38 (≈ 0.411 µM) | 0.012 (≈ 0.013 µM) | 0.063 (≈ 0.0681 µM) | – | –
CCCCCCCOc1cc(F)c(C(=O)N[C@@H](CCN)C(=O)N(C)[C@@H]2C(=O)N[C@@H](C)C(=O)N[C@H](C(=O)NCC#N)Cc3ccc(OCCN)c(c3)-c3cc2ccc3OCCN)c(Cl)c1 [Compound 291] | 1.3 | – | 0.0078 (≈ 0.00859 µM) | – | 0.19 (≈ 0.209 µM) | 0.063 (≈ 0.0693 µM)
CCCCCCCOc1cc(C)c(C(=O)N[C@@H](CCN)C(=O)N(C)[C@@H]2C(=O)N[C@@H](C)C(=O)N[C@H](C(=O)NCC#N)Cc3ccc(OCCN)c(c3)-c3cc2ccc3OCCN)c(C)c1 [Compound 292] | 1.2 | – | 0.0078 (≈ 0.00882 µM) | – | 0.38 (≈ 0.43 µM) | 0.047 (≈ 0.0532 µM)
CCCCCCCOc1c(F)cc(C(=O)N[C@@H](CCN)C(=O)N(C)[C@@H]2C(=O)N[C@@H](C)C(=O)N[C@H](C(=O)NCC#N)Cc3ccc(OCCN)c(c3)-c3cc2ccc3OCCN)cc1Cl [Compound 293] | 1.5 | – | < 0.0039 | – | 0.38 (≈ 0.418 µM) | 0.063 (≈ 0.0693 µM)
CCCCCCCOc1ccc(C(=O)N[C@@H](CCN)C(=O)N(C)[C@@H]2C(=O)N[C@@H](C)C(=O)N[C@H](C(=O)NCC#N)Cc3ccc(OCCN)c(c3)-c3cc2ccc3OCCN)c2ccccc12 [Compound 295] | 0.69 | – | < 0.0039 | – | 0.13 (≈ 0.143 µM) | 0.031 (≈ 0.0342 µM)
CCCCCCOCc1ccc(C(=O)N[C@@H](CCN)C(=O)N(C)[C@@H]2C(=O)N[C@@H](C)C(=O)N[C@H](C(=O)NCC#N)Cc3ccc(OCCN)c(c3)-c3cc2ccc3OCCN)c(C)c1 [Compound 298] | 0.82 | – | 0.0078 (≈ 0.00896 µM) | – | 1 (≈ 1.15 µM) | 0.063 (≈ 0.0724 µM)
CCCCCCCOc1cc(C)c(C(=O)N[C@@H](CCN)C(=O)N(C)[C@@H]2C(=O)N[C@@H](C)C(=O)N[C@H](C(=O)NCC#N)Cc3ccc(OCCN)c(c3)-c3cc2ccc3OCCN)c(Cl)c1 [Compound 299] | 1.1 | – | 0.016 (≈ 0.0177 µM) | – | 0.5 (≈ 0.553 µM) | 0.094 (≈ 0.104 µM)
CCCCc1ccc(Oc2ccc(C(=O)N[C@@H](CCN)C(=O)N(C)[C@@H]3C(=O)N[C@@H](C)C(=O)N[C@H](C(=O)NCC#N)Cc4ccc(OCCN)c(c4)-c4cc3ccc4OCCN)c(C)c2)cc1 [Compound 303] | 0.93 | – | 0.012 (≈ 0.0133 µM) | – | 0.19 (≈ 0.21 µM) | 0.047 (≈ 0.052 µM)
Cc1nc(Oc2ccc(CC(C)C)cc2)ncc1C(=O)N[C@@H](CCN)C(=O)N(C)[C@@H]1C(=O)N[C@@H](C)C(=O)N[C@H](C(=O)NCC#N)Cc2ccc(OCCN)c(c2)-c2cc1ccc2OCCN [Compound 304] | 0.68 | – | 0.016 (≈ 0.0177 µM) | – | 1 (≈ 1.1 µM) | 0.047 (≈ 0.0519 µM)
Cc1nc(Oc2ccc(C(C)(C)C)cc2)ncc1C(=O)N[C@@H](CCN)C(=O)N(C)[C@@H]1C(=O)N[C@@H](C)C(=O)N[C@H](C(=O)NCC#N)Cc2ccc(OCCN)c(c2)-c2cc1ccc2OCCN [Compound 305] | 0.73 | – | 0.016 (≈ 0.0177 µM) | – | 1 (≈ 1.1 µM) | 0.063 (≈ 0.0695 µM)
CCCCc1ccc(Oc2ncc(C(=O)N[C@@H](CCN)C(=O)N(C)[C@@H]3C(=O)N[C@@H](C)C(=O)N[C@H](C(=O)NCC#N)Cc4ccc(OCCN)c(c4)-c4cc3ccc4OCCN)c(C)n2)cc1 [Compound 306] | 0.69 | – | 0.0078 (≈ 0.00861 µM) | – | 1 (≈ 1.1 µM) | 0.031 (≈ 0.0342 µM)
CCCC#Cc1ccc(C(=O)N[C@@H](CCN)C(=O)N(C)[C@@H]2C(=O)N[C@@H](C)C(=O)N[C@H](C(=O)NCC#N)Cc3ccc(OCCN)c(c3)-c3cc2ccc3OCCN)c(C)c1 [Compound 307] | 3.5 | – | 0.031 (≈ 0.0377 µM) | – | 0.88 (≈ 1.07 µM) | 0.25 (≈ 0.304 µM)
CCC/C=C\c1ccc(C(=O)N[C@@H](CCN)C(=O)N(C)[C@@H]2C(=O)N[C@@H](C)C(=O)N[C@H](C(=O)NCC#N)Cc3ccc(OCCN)c(c3)-c3cc2ccc3OCCN)c(C)c1 [Compound 308] | 0.71 | – | 0.016 (≈ 0.0194 µM) | – | 1 (≈ 1.21 µM) | 0.063 (≈ 0.0765 µM)
Cc1cc(C#CC(C)C)ccc1C(=O)N[C@@H](CCN)C(=O)N(C)[C@@H]1C(=O)N[C@@H](C)C(=O)N[C@H](C(=O)NCC#N)Cc2ccc(OCCN)c(c2)-c2cc1ccc2OCCN [Compound 309] | 1 | – | 0.02 (≈ 0.0243 µM) | – | 1.1 (≈ 1.34 µM) | 0.19 (≈ 0.231 µM)
Cc1cc(C#CC2CCCCC2)ccc1C(=O)N[C@@H](CCN)C(=O)N(C)[C@@H]1C(=O)N[C@@H](C)C(=O)N[C@H](C(=O)NCC#N)Cc2ccc(OCCN)c(c2)-c2cc1ccc2OCCN [Compound 310] | 0.99 | – | 0.0098 (≈ 0.0114 µM) | – | 0.13 (≈ 0.151 µM) | 0.047 (≈ 0.0545 µM)
C[C@@H]1NC(=O)[C@@H](N(C)C(=O)[C@H](CCN)NC(=O)c2ccc(C#CC3CCCCC3)cc2C(F)F)c2ccc(OCCN)c(c2)-c2cc(ccc2OCCN)C[C@@H](C(=O)NCC#N)NC1=O [Compound 311] | 0.64 | 0.25 (≈ 0.278 µM) | 0.012 (≈ 0.0134 µM) | 0.047 (≈ 0.0523 µM) | – | –
CCCCCCCc1cc(C)c(C(=O)N[C@@H](CCN)C(=O)N(C)[C@@H]2C(=O)N[C@@H](C)C(=O)N[C@H](C(=O)NCC#N)Cc3ccc(OCCN)c(c3)-c3cc2ccc3OCCN)cn1 [Compound 313] | 0.68 | – | 0.0078 (≈ 0.00912 µM) | – | 0.5 (≈ 0.585 µM) | 0.031 (≈ 0.0363 µM)
CCCCCCCCCCNCCC(=O)N(C)[C@@H]1C(=O)N[C@@H](C)C(=O)N[C@H](C(=O)NCC#N)Cc2ccc(O)c(c2)-c2cc1ccc2OCCN [Compound 316] | 0.84 | – | 2 (≈ 2.83 µM) | – | > 64 | 0.13 (≈ 0.184 µM)
CCCCCCCCCCNCCC(=O)N(C)[C@@H]1C(=O)N[C@@H](C)C(=O)N[C@H](C(=O)NCC#N)Cc2ccc(OCCN)c(c2)-c2cc1ccc2O [Compound 317] | 0.87 | – | 1 (≈ 1.42 µM) | – | 64 (≈ 90.7 µM) | 0.094 (≈ 0.133 µM)
C[C@@H]1NC(=O)[C@@H](N(C)C(=O)[C@H](CCCCN)NC(=O)c2ccc(-c3ccc(Cl)cc3)cc2)c2ccc(OCCN)c(c2)-c2cc(ccc2O)C[C@@H](C(=O)N[C@@H](C)C#N)NC1=O [Compound 319] | 6.3 | > 64 | 0.75 (≈ 0.881 µM) | 2 (≈ 2.35 µM) | – | –
CCCCCCCCCCNCCC(=O)N[C@@H](CCCCN)C(=O)N(C)[C@@H]1C(=O)N[C@@H](C)C(=O)N[C@H](C(=O)NCC#N)Cc2ccc(O)c(c2)-c2cc1ccc2OCCN [Compound 320] | 0.97 | – | 2 (≈ 2.4 µM) | – | > 64 | 0.13 (≈ 0.156 µM)
